Laboratory results published in publication PMC3392958, “Assay Format as a Critical Success Factor for Identification of Novel Inhibitor Chemotypes of Tissue-Nonspecific Alkaline Phosphatase from High-Throughput Screening” (Molecules, 2010).
Where two headings read alike, the source gives them in different places. One block for each compound: values may come before it.

Legend:
[1] = biological target: T1, TNAP (Homo sapiens, UniProt P05186); experiment: TNAP luminescent assay (CDP-star substrate, 100 mM DEA); format: biochemical
T1 construct: made in house; host or cells: COS-1 cells, transient expression; dialyzed serum-free conditioned medium
T1 sequence (P05186 18-501 limits assumed): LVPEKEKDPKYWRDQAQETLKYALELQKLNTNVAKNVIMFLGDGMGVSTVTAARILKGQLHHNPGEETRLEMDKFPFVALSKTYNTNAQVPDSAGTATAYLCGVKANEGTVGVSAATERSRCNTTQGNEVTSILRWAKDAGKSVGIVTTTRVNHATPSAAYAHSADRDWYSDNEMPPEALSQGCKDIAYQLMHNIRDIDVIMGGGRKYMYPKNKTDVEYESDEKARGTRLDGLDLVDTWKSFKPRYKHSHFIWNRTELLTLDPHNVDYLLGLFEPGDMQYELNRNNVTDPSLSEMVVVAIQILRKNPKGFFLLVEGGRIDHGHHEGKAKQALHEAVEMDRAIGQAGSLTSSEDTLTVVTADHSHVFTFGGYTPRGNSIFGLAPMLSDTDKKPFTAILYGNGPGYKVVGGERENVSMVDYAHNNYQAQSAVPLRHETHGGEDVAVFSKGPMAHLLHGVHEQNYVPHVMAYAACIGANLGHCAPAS
Description: (§1) Development of the novel luminescent TNAP assay using CDP-star substrate and detailed protocol of its application for HTS is described in more detail elsewhere. […] Briefly, the assay was 50 μM CDP-star substrate in assay buffer containing 100 mM DEA-HCl (pH 9.8), 1 mM MgCl2, and 20 μM ZnCl2. The luminescence signal was measured after a 30-min incubation at room temperature on an EnVision plate reader (PerkinElmer, Waltham, MA). […] Detailed protocols can be found in the respective AIDs, however, the final buffer conditions were 100 mM DEA, pH 9.8, 1.0 mM MgCl2, 0.02 mM ZnCl2 for both PLAP and IAP.

[2] = biological target: T2, IAP (Homo sapiens, UniProt P09923); experiment: IAP luminescent assay (CDP-star); format: biochemical
T2 construct: made in house; host or cells: COS-1 cells, transient expression; dialyzed serum-free conditioned medium
T2 sequence (P09923 20-503 limits assumed): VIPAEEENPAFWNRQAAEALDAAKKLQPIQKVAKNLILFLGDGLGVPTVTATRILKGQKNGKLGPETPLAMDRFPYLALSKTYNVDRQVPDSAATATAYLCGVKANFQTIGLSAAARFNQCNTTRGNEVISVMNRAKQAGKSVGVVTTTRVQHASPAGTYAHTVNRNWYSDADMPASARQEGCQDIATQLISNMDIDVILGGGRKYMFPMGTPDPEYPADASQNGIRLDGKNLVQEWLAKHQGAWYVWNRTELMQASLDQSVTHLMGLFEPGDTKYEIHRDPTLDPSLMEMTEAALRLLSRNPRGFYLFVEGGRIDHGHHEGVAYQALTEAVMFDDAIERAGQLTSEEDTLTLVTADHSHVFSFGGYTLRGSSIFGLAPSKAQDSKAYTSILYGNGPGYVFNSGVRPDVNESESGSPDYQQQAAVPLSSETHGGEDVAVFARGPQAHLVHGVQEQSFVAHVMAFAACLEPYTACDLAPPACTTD
Description: (§2) Selectivity of Primary Actives Against other Phosphatases: To assess the selectivity of compounds across the alkaline phosphatase family, luminescent assays were developed for human PLAP and human IAP with the same CDP-Star reagent.
as §1

[3] = biological target: T1, TNAP; experiment: TNAP colorimetric malachite green phosphate detection (MG) assay; format: biochemical; details: fresh solid samples from vendors; read-out: IC50 SAR-MG
Description: (§3) The colorimetric TNAP assay was performed as previously described with slight modifications.

[4] = biological target: T1, TNAP; experiment: TNAP colorimetric assay (pNPP substrate, OD405, 1M DEA); format: biochemical
Description: as §3

[5] = biological target: T3, human PLAP (Homo sapiens, UniProt P05187); experiment: PLAP luminescent assay (CDP-star); format: biochemical
T3 construct: made in house; host or cells: COS-1 cells, transient expression; dialyzed serum-free conditioned medium
Description: as §2, §1

[6] = biological target: T1, TNAP; set-up: method as in PMID 19556612; details: three DEA concentrations tested; cited from earlier work
[7] = phtalimide triazole series, read-out: IC50 TNAP- Lumi
[8] = phtalimide triazole series, read-out: IC50 IAP-Lumi
[9] = compounds from MLSMR in liquid form, read-out: IC50 HTS-Color
[10] = fresh solid samples from vendors, read-out: IC50 SAR-Color
[11] = read-out: Selectivity Panel IC50 PLAP
[12] = compounds from MLSMR in liquid form, read-out: IC50 HTS-Lumi
[13] = fresh solid samples from vendors, read-out: IC50 SAR-Lumi
[14] = read-out: Selectivity Panel IC50 IAP
[15] = optimized pyrazole series, read-out: TNAP Lumi IC50
[16] = luminescence-based assay, 0.1M DEA, read-out: TNAP IC50
[17] = catechol series, read-out: PLAP IC50

T3 sequence (P05187 23-506 limits assumed): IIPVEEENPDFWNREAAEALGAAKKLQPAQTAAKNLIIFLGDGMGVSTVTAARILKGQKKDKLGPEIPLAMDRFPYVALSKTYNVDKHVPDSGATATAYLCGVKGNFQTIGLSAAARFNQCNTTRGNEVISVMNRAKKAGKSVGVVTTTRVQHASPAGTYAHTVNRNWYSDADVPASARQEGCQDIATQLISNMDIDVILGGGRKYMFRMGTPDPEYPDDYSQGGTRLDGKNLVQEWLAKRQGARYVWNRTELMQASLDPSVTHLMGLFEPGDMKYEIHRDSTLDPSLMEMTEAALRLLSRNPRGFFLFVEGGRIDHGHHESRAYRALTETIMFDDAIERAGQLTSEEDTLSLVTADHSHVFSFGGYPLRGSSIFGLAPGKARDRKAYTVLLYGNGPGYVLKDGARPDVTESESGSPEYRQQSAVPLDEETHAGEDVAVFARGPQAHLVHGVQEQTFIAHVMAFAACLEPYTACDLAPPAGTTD

SMILES: COc1ccc(OC)c(C(=O)Nc2cnc3ccccc3c2)c1 [MLS-0111666]
activity against TNAP in vitro ([1]; luminescence-based assay): inactive

SMILES: Cc1cc(C)nc(SCC(=O)c2ccc(O)c(O)c2)n1 [MLS-0315687]
IC50 ([1]; catechol series, read-out: TNAP IC50): 8.6 µM | IC50 ([2]; catechol series, read-out: IAP IC50): 49.5 µM

SMILES: CC(C)NC(=O)c1cc(-c2ccc(Cl)cc2Cl)n[nH]1 [MLS-0146149]
IC50 [1, 15]: 0.024 µM

SMILES: O=C(NCCO)c1cc(-c2cc(F)c(Cl)cc2Cl)n[nH]1 [MLS-0146165]
IC50 [1, 15]: 0.042 µM

SMILES: O=C(NCCO)c1cc(-c2ccc(Cl)cc2Cl)n[nH]1 [MLS-0146161]
IC50 [1, 15]: 0.02 µM

SMILES: COC(=O)c1cc(-c2ccc(Cl)cc2Cl)n[nH]1 [MLS-0091995]
improvement in TNAP potency over parent compound ([1]; MLS-0091995 vs CID-646303, MLS-0111547 vs MLS-0004120): 2 fold | IC50 [1, 16]: 0.5 µM

SMILES: CCc1nccn1CC(=O)c1ccc(O)c(O)c1 [MLS-0315848]
selectivity as inhibitor of PLAP over IAP ([5]; catechol series): over 27 fold | selectivity as inhibitor of PLAP over TNAP ([5]; catechol series): over 27 fold | IC50 [5, 17]: 4.2 µM

The next lines start with results.

IC50 [1, 7]: 27.9 µM | selectivity for IAP over TNAP [2]: 40 fold | IC50 [2, 8]: 0.72 µM
SMILES: O=C1C2CC=CCC2C(=O)N1c1nnc(CCc2ccccc2)[nH]1 (stereo not shown) [MLS-0091987]

IC50 [3]: > 100 µM | IC50 [4, 9]: > 100 µM | IC50 [4, 10]: > 100 µM | IC50 [5, 11]: > 100 µM | IC50 ([1]; TNAP, read-out: IC50 (Figure 6, pyrazole series optimization)): 1 µM | IC50 [1, 12]: 0.98 µM | IC50 [1, 13]: 0.74 µM | IC50 ([1]; read-out: Selectivity Panel IC50 TNAP): 0.74 µM | IC50 [2, 14]: 44 µM
SMILES: O=C(O)c1cc(-c2ccccc2Cl)[nH]n1 [MLS-0005718]
mechanism of TNAP inhibition with respect to DEA [6]: competitive

IC50 [1, 7]: 10.5 µM | selectivity for IAP over TNAP [2]: 6 fold
SMILES: O=C1C2CC=CCC2C(=O)N1c1nnc(-c2cccnc2)[nH]1 (stereo not shown) [MLS-0091977]

IC50 [1, 7]: 4.68 µM | selectivity for IAP over TNAP [2]: 10 fold | IC50 [2, 8]: 0.41 µM
SMILES: O=C1C2CC=CCC2C(=O)N1c1nnc(-c2ccco2)[nH]1 (stereo not shown) [MLS-0091966]

IC50 [1, 7]: > 100 µM
SMILES: O=C1C2CCCCC2C(=O)N1c1nc(CCc2ccccc2)n[nH]1 (stereo not shown) [MLS-0091984]

IC50 [3]: 74 µM | IC50 [4, 9]: 21 µM | IC50 [4, 10]: 46 µM | IC50 [5, 11]: > 100 µM | IC50 [1, 12]: 3.2 µM | IC50 [1, 13]: 4.6 µM | IC50 [2, 14]: > 100 µM
SMILES: Oc1cc(-c2cccc3ccccc23)[nH]n1 [MLS-0039961]
mechanism of TNAP inhibition with respect to DEA [6]: noncompetitive

IC50 [1, 16]: > 100 µM
SMILES: O=S(=O)(Nc1cnc2ccccc2c1)c1ccccc1 [MLS-0090845]

IC50 [1, 7]: 1.57 µM | IC50 [2, 8]: 1.1 µM
SMILES: O=C1C2CCCCC2C(=O)N1c1nc(Cc2ccccc2)n[nH]1 (stereo not shown) [MLS-0091981]

IC50 [5, 17]: 9.1 µM
SMILES: O=C(CNc1nc2ccccc2[nH]1)c1ccc(O)c(O)c1 [Compound 2]

activity against TNAP in vitro ([1]; luminescence-based assay): elimination of activity | IC50 [1, 7]: > 100 µM | activity against IAP [2]: elimination of activity | IC50 [2, 8]: > 100 µM
SMILES: O=C1C2CC=CCC2C(=O)N1c1nnc[nH]1 (stereo not shown) [MLS-0091980]
